Assay results: patent US9290451B2 (Hoffmann-La Roche Inc., priority 2011, dated 2016)

Assays:
[1] = molecular target: human CB1 receptors (Homo sapiens (Human), UniProt P21554); assay: cAMP assay, CHO cells expressing human CB1 receptors; format: cell-based; conditions: CHO cells expressing human CB1, cAMP; read-out: human CB1 EC50
Procedure: (§1) CHO cells expressing human CB1 or CB2 receptors are seeded 17-24 hours prior to the experiment 50.000 cells per well in a black 96 well plate with flat clear bottom (Corning Costar #3904) in DMEM (Invitrogen No. 31331), 1×HT supplement, with 10% fetal calf serum and incubated at 5% CO2 and 37° C. in a humidified incubator. The growth medium was exchanged with Krebs Ringer Bicarbonate buffer with 1 mM IBMX and incubated at 30° C. for 30 min Compounds were added to a final assay volume of 100 μl and incubated for 30 min at 30° C. Using the cAMP-Nano-TRF detection kit the assay (Roche Diagnostics) was stopped by the addition of 50 μl lysis reagent (Tris, NaCl, 1.5% Triton X100, 2.5% NP40, 10% NaN3) and 50 μl detection solutions (20 μM mAb Alexa700-cAMP 1:1, and 48 μM Ruthenium-2-AHA-cAMP) and shaken for 2 h at room temperature. The time-resolved energy transfer is measured by a TRF reader (Evotec Technologies GmbH), equipped with a ND:YAG laser as excitation source. The plate is measured twice with the excitation at 355 nm and at the emission with a delay of 100 ns and a gate of 100 ns, total exposure time 10 s at 730 (bandwidth 30 nm) or 645 nm (bandwidth 75 nm), respectively. The FRET signal is calculated as follows: FRET=T730-Alexa730-P(T645-B645) with P═Ru730-B730/Ru645-B645, where T730 is the test well measured at […], T645 is the test well measured at 645 nm, B730 and B645 are the buffer controls at 730 nm and 645 nm, respectively. cAMP content is determined from the function of a standard curve spanning from 10 μM to 0.13 nM cAMP.
(§2) EC50 values were determined using Activity Base analysis (ID Business Solution, Limited). The EC50 values for a wide range of cannabinoid agonists generated from this assay for reference compounds were in agreement with the values published in the scientific literature.

[2] = molecular target: human CB2 receptors (Homo sapiens (Human), UniProt P34972); assay: cAMP assay, CHO cells expressing human CB2 receptors; format: cell-based; conditions: CHO cells expressing human CB2, cAMP; read-out: human CB2 EC50
Procedure: as §1, §2

Sequence of human CB1 receptors (P21554 whole entry): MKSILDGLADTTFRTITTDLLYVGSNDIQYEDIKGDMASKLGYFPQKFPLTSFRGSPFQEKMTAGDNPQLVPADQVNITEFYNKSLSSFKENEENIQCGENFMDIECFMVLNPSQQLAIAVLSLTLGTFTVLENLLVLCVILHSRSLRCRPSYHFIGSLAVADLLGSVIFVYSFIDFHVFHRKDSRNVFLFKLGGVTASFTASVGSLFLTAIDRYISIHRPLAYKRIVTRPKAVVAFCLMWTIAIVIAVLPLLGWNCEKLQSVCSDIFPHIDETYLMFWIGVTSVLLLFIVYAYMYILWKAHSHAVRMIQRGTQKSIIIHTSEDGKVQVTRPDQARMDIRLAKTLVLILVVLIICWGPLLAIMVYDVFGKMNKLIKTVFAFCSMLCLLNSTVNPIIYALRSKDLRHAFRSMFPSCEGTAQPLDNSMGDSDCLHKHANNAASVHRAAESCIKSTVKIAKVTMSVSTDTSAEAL
Sequence of human CB2 receptors (P34972 whole entry): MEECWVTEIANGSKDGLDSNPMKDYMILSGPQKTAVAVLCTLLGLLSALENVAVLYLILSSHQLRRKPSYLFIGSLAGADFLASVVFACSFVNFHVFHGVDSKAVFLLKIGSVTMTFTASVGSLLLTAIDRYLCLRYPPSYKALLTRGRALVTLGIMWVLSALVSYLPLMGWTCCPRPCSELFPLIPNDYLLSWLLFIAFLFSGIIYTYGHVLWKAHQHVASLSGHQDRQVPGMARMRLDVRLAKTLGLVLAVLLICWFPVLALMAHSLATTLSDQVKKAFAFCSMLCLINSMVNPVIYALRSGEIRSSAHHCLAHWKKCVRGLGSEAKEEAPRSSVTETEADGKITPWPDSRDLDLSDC

SMILES: CC(C)C[C@H](NC(=O)c1ccc(N2CCCC2C)c(OCC2CC2)n1)C(N)=O (stereo partly drawn) [Example 32, 6-Cyclopropylmethoxy-5-(2-methyl-pyrrolidin-1-yl)-pyridine-2-carboxylic acid ((S)-1-carbamoyl-3-methyl-butyl)-amide]
- EC50 [1]: 1.39 µM
- EC50 [2]: 1.55 nM

SMILES: Cc1nc(C(C)(C)NC(=O)c2ccc(N3CCCC3)c(OCC3CC3)n2)no1 [Example 33, 6-Cyclopropylmethoxy-5-pyrrolidin-1-yl-pyridine-2-carboxylic acid [1-methyl-1-(5-methyl-[1,2,4]oxadiazol-3-yl)-ethyl]-amide]
- EC50 [1]: > 10 µM
- EC50 [2]: 23.1 nM

SMILES: CC(C)(NC(=O)c1ccc(C2CCOCC2)c(OCC2CC2)n1)c1nccs1 [Example 34, 6-Cyclopropylmethoxy-5-(tetrahydro-pyran-4-yl)-pyridine-2-carboxylic acid (1-methyl-1-thiazol-2-yl-ethyl)-amide]
- EC50 [1]: > 10 µM
- EC50 [2]: 53.7 nM

SMILES: CC(C)(CCN1CCOCC1)NC(=O)c1ccc(N2CCCC2)c(OCC2CC2)n1 [Example 35, 6-Cyclopropylmethoxy-5-pyrrolidin-1-yl-pyridine-2-carboxylic acid (1,1-dimethyl-3-morpholin-4-yl-propyl)-amide]
- EC50 [1]: > 10 µM
- EC50 [2]: 7.1 nM

SMILES: CNC(=O)C(C)(C)NC(=O)c1ccc(C)c(OCC2CC2)n1 [Example 36, 6-Cyclopropylmethoxy-5-methyl-pyridine-2-carboxylic acid (1-methyl-1-methylcarbamoyl-ethyl)-amide]
- EC50 [1]: > 10 µM
- EC50 [2]: 974 nM

SMILES: O=C(NN1CCCCC1)c1cccc(C2CCOCC2)n1 [Example 37, 6-(Tetrahydro-pyran-4-yl)-pyridine-2-carboxylic acid piperidin-1-ylamide]
- EC50 [1]: > 10 µM
- EC50 [2]: 625 nM

SMILES: Cc1nc([C@H](CC2CC2)NC(=O)c2cccc(-c3cccc(Cl)c3)n2)no1 [Example 38]
- EC50 [1]: > 10 µM
- EC50 [2]: 99.7 nM

SMILES: CNC(=O)C(C)(C)NC(=O)c1ccc(C2CCCC2)c(OCC2CC2)n1 [Example 40, 5-Cyclopentyl-6-cyclopropylmethoxy-pyridine-2-carboxylic acid (1-methyl-1-methylcarbamoyl-ethyl)-amide]
- EC50 [1]: > 10 µM
- EC50 [2]: 30.8 nM

SMILES: Cc1nc(C(C)(C)NC(=O)c2cccc(-c3cccc(Cl)c3)n2)no1 [Example 41, 6-(3-Chloro-phenyl)-pyridine-2-carboxylic acid [1-methyl-1-(5-methyl-[1,2,4]oxadiazol-3-yl)-ethyl]-amide]
- EC50 [1]: > 10 µM
- EC50 [2]: 99.9 nM

SMILES: O=C(NN1CCCCC1)c1ccc(C2CC2)c(OCC2CC2)n1 [Example 42, 5-Cyclopropyl-6-cyclopropylmethoxy-pyridine-2-carboxylic acid piperidin-1-ylamide]
- EC50 [1]: > 10 µM
- EC50 [2]: 1480 nM

SMILES: CNC(=O)C(C)(C)NC(=O)c1ccc(C2CC2)c(OCC2CC2)n1 [Example 43, 5-Cyclopropyl-6-cyclopropylmethoxy-pyridine-2-carboxylic acid (1-methyl-1-methylcarbamoyl-ethyl)-amide]
- EC50 [1]: > 10 µM
- EC50 [2]: 275 nM

SMILES: CC(C)(NC(=O)c1ccc(C2CC2)c(OCC2CC2)n1)c1nccs1 [Example 44, 5-Cyclopropyl-6-cyclopropylmethoxy-pyridine-2-carboxylic acid (1-methyl-1-thiazol-2-yl-ethyl)-amide]
- EC50 [1]: 1.61 µM
- EC50 [2]: 13.5 nM

SMILES: Cc1nc(C(C)(C)NC(=O)c2ccc(C3CC3)c(OCC3CC3)n2)no1 [Example 45, 5-Cyclopropyl-6-cyclopropylmethoxy-pyridine-2-carboxylic acid [1-methyl-1-(5-methyl-[1,2,4]oxadiazol-3-yl)-ethyl]-amide]
- EC50 [1]: 1.06 µM
- EC50 [2]: 87.1 nM

SMILES: O=C(NN1CCCCC1)c1cccc(-c2ccc(Cl)cc2)n1 [Example 46, 6-(4-Chloro-phenyl)-pyridine-2-carboxylic acid piperidin-1-ylamide]
- EC50 [1]: > 10 µM
- EC50 [2]: 290 nM

SMILES: Cc1ccc(C(=O)NN2CCCCC2)nc1OCC1CC1 [Example 47, 6-Cyclopropylmethoxy-5-methyl-pyridine-2-carboxylic acid piperidin-1-ylamide]
- EC50 [1]: > 10 µM
- EC50 [2]: 138 nM

SMILES: Cc1ccc(C(=O)NC(C)(C)c2ncco2)nc1-c1cccc(Cl)c1 [Example 49, 6-(3-Chloro-phenyl)-5-methyl-pyridine-2-carboxylic acid (1-methyl-1-oxazol-2-yl-ethyl)-amide]
- EC50 [1]: > 10 µM
- EC50 [2]: 308 nM

SMILES: Cc1ccc(C(=O)NC(C)(C)c2nccs2)nc1-c1cccc(Cl)c1 [Example 50, 6-(3-Chloro-phenyl)-5-methyl-pyridine-2-carboxylic acid (1-methyl-1-thiazol-2-yl-ethyl)-amide]
- EC50 [1]: 1.49 µM
- EC50 [2]: 133 nM

SMILES: Cc1nc(C(C)(C)NC(=O)c2ccc(C)c(-c3cccc(Cl)c3)n2)no1 [Example 51, 6-(3-Chloro-phenyl)-5-methyl-pyridine-2-carboxylic acid [1-methyl-1-(5-methyl-[1,2,4]oxadiazol-3-yl)-ethyl]-amide]
- EC50 [1]: > 10 µM
- EC50 [2]: 127 nM

SMILES: Cc1ccc(C(=O)NN2CCCCC2)nc1-c1cccc(Cl)c1 [Example 52, 6-(3-Chloro-phenyl)-5-methyl-pyridine-2-carboxylic acid piperidin-1-yl-amide]
- EC50 [1]: > 10 µM
- EC50 [2]: 322 nM

SMILES: Cc1nc([C@H](CC2CC2)NC(=O)c2ccc(C3CCCC3)c(OCC3CC3)n2)no1 [Example 53, 5-Cyclopentyl-6-cyclopropylmethoxy-pyridine-2-carboxylic acid [(S)-2-cyclopropyl-1-(5-methyl-[1,2,4]oxadiazol-3-yl)-ethyl]-amide]
- EC50 [1]: > 10 µM
- EC50 [2]: 45.7 nM

SMILES: Cc1nc(C(C)(C)NC(=O)c2ccc(C3CCCC3)c(OCC3CC3)n2)no1 [Example 54, 5-Cyclopentyl-6-cyclopropylmethoxy-pyridine-2-carboxylic acid [1-methyl-1-(5-methyl-[1,2,4]oxadiazol-3-yl)-ethyl]-amide]
- EC50 [1]: 2.16 µM
- EC50 [2]: 11.4 nM

SMILES: CC(C)(NC(=O)c1ccc(C2CCCC2)c(OCC2CC2)n1)c1nccs1 [Example 55, 5-Cyclopentyl-6-cyclopropylmethoxy-pyridine-2-carboxylic acid (1-methyl-1-thiazol-2-yl-ethyl)-amide]
- EC50 [1]: 1.39 µM
- EC50 [2]: 31.7 nM

SMILES: CC(C)C[C@H](NC(=O)c1cccc(-c2cccc(Cl)c2)n1)c1nccs1 [Example 56, 6-(3-Chloro-phenyl)-pyridine-2-carboxylic acid ((S)-3-methyl-1-thiazol-2-yl-butyl)-amide]
- EC50 [1]: > 10 µM
- EC50 [2]: 173 nM

SMILES: Cc1nc([C@H](CC2CC2)NC(=O)c2ccc(C)c(OCC3CC3)n2)no1 [Example 57, 6-Cyclopropylmethoxy-5-methyl-pyridine-2-carboxylic acid [(S)-2-cyclopropyl-1-(5-methyl-[1,2,4]oxadiazol-3-yl)-ethyl]-amide]
- EC50 [1]: > 10 µM
- EC50 [2]: 319 nM

SMILES: CC(C)(NC(=O)c1ccc(Cl)c(-c2cccc(Cl)c2)n1)c1nccs1 [Example 58, 5-Chloro-6-(3-chloro-phenyl)-pyridine-2-carboxylic acid (1-methyl-1-thiazol-2-yl-ethyl)-amide]
- EC50 [1]: 1.11 µM
- EC50 [2]: 104 nM

SMILES: O=C(N[C@@H](CC1CC1)c1nccs1)c1ccc(C2CCOCC2)c(OCC2CC2)n1 [Example 59, 6-Cyclopropylmethoxy-5-(tetrahydro-pyran-4-yl)-pyridine-2-carboxylic acid ((S)-2-cyclopropyl-1-thiazol-2-yl-ethyl)-amide]
- EC50 [1]: > 10 µM
- EC50 [2]: 32.5 nM
